The values that follow come from patent US7238830B2, “N-alkylaspartyl dipeptide ester compounds” (Ajinomoto Co., Inc., priority 1998, dated 2007).

Read-outs that look alike come from different tables or passages of the source.

Assay [1] can be described thus: Sensory evaluation of sweetness (sweetening potency) relative to sucrose. To be noted: for Sweetness (sweetening potency): sensory evaluation; for sweetness potency: values compared to sweetening potency of a 4% aqueous solution of sucrose. An excerpt:
For example, the sweetness of N-[N-[3-(3-hydroxy-4-methoxyphenyl)-3-methylbutyl]-L-α-aspartyl]-L-phenylalanine 1-methyl ester was approximately 70000 times that of sugar, the sweetness of N-[N-[3-(3-methyl-4 hydroxyphenyl)-3-methylbutyl]-L-α-aspartyl]-L-phenylalanine 1-methyl ester was approximately 70000 times that of sugar, the sweetness of N-[N-[3-(3-hydroxy-4-methylphenyl)-3-methylbutyl]-L-α- aspartyl]-L-phenylalanine 1-methyl ester was approximately 60000 times that of sugar, and the sweetness of N-[N-((RS)-3-(3 hydroxy-4-methoxyphenyl) butyl]-L-α-aspartyl]-L-phenylalanine 1-methyl ester was approximately 50000 times that of sugar. […] Sensory evaluations can be performed as described in, for example, B. T. Carr, S. D. Pecore, K. M. Gibes and G. E. Dubois, “Sensory Methods for Sweetner Evaluation” in Flavor Measurement, edited by C. T. Ho and C. H. Manley, Marcel Decker, Inc. (1992).

The conditions of assay [2]: reported in WO 94/11391, compared to 2%, 5% and 10% sucrose solutions, cited from earlier work.

On to `COC(=O)[C@H](Cc1ccccc1)NC(=O)[C@H](CC(=O)O)NCCC(C)(C)c1ccc(OC)c(O)c1`, for which the “Sweetness (sweetening potency)” value in assay [1] is “approximately 70000 times the sweetness of sugar”.

Consider `COC(=O)[C@H](Cc1ccccc1)NC(=O)[C@H](CC(=O)O)NCCC(C)c1ccc(OC)cc1` (mixture of isomers) [Compound 1, N-[N-[(RS)-3-(4-methoxyphenyl)butyl]-L-α-aspartyl]-L-phenylalanine 1-methyl ester], for which, in assay [1], the “Sweetness (sweetening potency)” value is 16000 times the sweetness of sugar and the sweetness potency is recorded as 16000.

Consider `COC(=O)[C@H](Cc1ccccc1)NC(=O)[C@H](CC(=O)O)NCCC(C)c1cccc(O)c1` (mixture of isomers) [Compound 2, N-[N-[(RS)-3-(3-hydroxyphenyl)butyl]-L-α-aspartyl]-L-phenylalanine 1 methyl ester], for which, in assay [1], the “Sweetness (sweetening potency)” value was 12000 times the sweetness of sugar and the sweetness potency came out at 12000.

In the case of `COC(=O)[C@H](Cc1ccccc1)NC(=O)[C@H](CC(=O)O)NCCC(C)c1ccc(O)c(OC)c1` (mixture of isomers) [Compound 3, N-[N-[(RS)-3-(3-methoxy-4-hydroxyphenyl)butyl]-L-α-aspartyl]-L-phenylalanine 1-methyl ester], in assay [1], the “Sweetness (sweetening potency)” value is listed as 30000 times the sweetness of sugar and the sweetness potency is reported as 30000.

In the case of `COC(=O)[C@H](Cc1ccccc1)NC(=O)[C@H](CC(=O)O)NCCC(C)c1ccc(OC)c(O)c1` (mixture of isomers) [Compound 4, N-[N-[(RS)-3-(3-hydroxy-4-methoxyphenyl)butyl]-L-α-aspartyl]-L-phenylalanine 1-methyl ester], the “Sweetness (sweetening potency)” value in assay [1] is “approximately 50000 times the sweetness of sugar”; in assay [1] (listed as Example 17) it was 50000 times the sweetness of sugar. The sweetness potency in assay [1] amounted to 50000.

`COC(=O)[C@H](Cc1ccc(O)cc1)NC(=O)[C@H](CC(=O)O)NCCC(C)c1ccc(O)c(OC)c1` (mixture of isomers) [Compound 5, N-[N-[(RS)-3-(3-methoxy-4-hydroxyphenyl)butyl]-L-α-aspartyl]-L-tyrosine 1-methyl ester]: in assay [1], the “Sweetness (sweetening potency)” value is 25000 times the sweetness of sugar and the sweetness potency was 25000.

Turning to `COC(=O)[C@H](CC1CCCCC1)NC(=O)[C@H](CC(=O)O)NCCC(C)c1ccc(OC)c(O)c1` (mixture of isomers) [Compound 6], in assay [1], the “Sweetness (sweetening potency)” value was 40000 times the sweetness of sugar and the sweetness potency came to 40000.

With `COC(=O)[C@H](Cc1ccccc1)NC(=O)[C@H](CC(=O)O)NCCC(C)c1ccc(O)c(C)c1` (mixture of isomers) [Compound 11, N-[N-[(RS)-3-(3-methyl-4-hydroxyphenyl)butyl]-L-α-aspartyl]-L-phenylalanine 1-methyl ester], in assay [1], the “Sweetness (sweetening potency)” value was 50000 times the sweetness of sugar and the sweetness potency was determined as 50000.

In the case of `COC(=O)[C@H](Cc1ccccc1)NC(=O)[C@H](CC(=O)O)NCC(C)Cc1ccc(OC)c(O)c1` (mixture of isomers) [Compound 12, N-[N-[3-(3-hydroxy-4-methoxyphenyl)-(RS)-2-methylpropyl)-L-α-aspartyl)-L-phenylalanine 1-methyl ester], in assay [1], the “Sweetness (sweetening potency)” value is reported as 5000 times the sweetness of sugar and the sweetness potency was 5000.

Turning to `COC(=O)[C@H](Cc1ccccc1)NC(=O)[C@H](CC(=O)O)NC(C)CCc1ccc(O)c(OC)c1` (mixture of isomers) [N-[N-[3-(3-methoxy-4-hydroxyphenyl)(RS)-1-methylpropyl]-L-α-aspartyl]-L-phenylalanine 1-methylester], in assay [2], the sweetening potency is 500 times that of sucrose.

For the molecule `COC(=O)[C@H](Cc1ccccc1)NC(=O)[C@H](CC(=O)O)NCCC(C)(C)c1ccc(OC)cc1` [Compound 7, N-[N-[3-(4-methoxyphenyl)-3-methylbutyl]-L-α-aspartyl)-L-phenylalanine 1-methyl ester], in assay [1], the “Sweetness (sweetening potency)” value is 25000 times the sweetness of sugar and the sweetness potency is listed as 25000.

Consider `COC(=O)[C@H](Cc1ccccc1)NC(=O)[C@H](CC(=O)O)NCCC(C)(C)c1ccccc1O` [Compound 13, N-[N-[3-(2-hydroxyphenyl)-3-methylbutyl]-L-α-aspartyl]-L-phenylalanine 1-methyl ester], for which, in assay [1], the “Sweetness (sweetening potency)” value is reported as 8000 times the sweetness of sugar and the sweetness potency is on record as 8000.

Take `COC(=O)[C@H](Cc1ccccc1)NC(=O)[C@H](CC(=O)O)NCCC(C)(C)c1ccc(OC)cc1O` [Compound 14, N-[N-[3-(2-hydroxy-4-methoxyphenyl)-3-methylbutyl]-L-α-aspartyl]-L-phenylalanine 1-methyl ester]: in assay [1], the “Sweetness (sweetening potency)” value is reported as 20000 times the sweetness of sugar and the sweetness potency is on record as 20000.

`COC(=O)[C@H](Cc1ccccc1)NC(=O)[C@H](CC(=O)O)NCCC(C)(C)c1ccc(C)cc1O` [Compound 15, N-[N-[3-(2-hydroxy-4-methylphenyl)-3-methylbutyl]-L-α-aspartyl]-L-phenylalanine 1-methyl ester]: in assay [1], the “Sweetness (sweetening potency)” value was 25000 times the sweetness of sugar and the sweetness potency amounted to 25000.

With `COC(=O)[C@H](Cc1ccccc1)NC(=O)[C@H](CC(=O)O)NCCC(C)(C)c1ccc2c(c1)OCO2` [Compound 16, N-[N-[3-(3,4-methylenedioxyphenyl)-3-methylbutyl]-L-α-aspartyl]-L-phenylalanine-1-methyl ester], in assay [1], the “Sweetness (sweetening potency)” value is listed as 30000 times the sweetness of sugar and the sweetness potency is given as 30000.

For the molecule `COC(=O)[C@H](Cc1ccccc1)NC(=O)[C@H](CC(=O)O)NCCC(C)(C)c1ccc(OC)c(C)c1` [Compound 17, N-[N-[3-(3-methyl-4-methoxyphenyl)-3-methylbutyl]-L-α-aspartyl]-L-phenylalanine 1-methyl ester], in assay [1], the “Sweetness (sweetening potency)” value is on record as 30000 times the sweetness of sugar and the sweetness potency worked out at 30000.

With `COC(=O)[C@H](Cc1ccccc1)NC(=O)[C@H](CC(=O)O)NCCC(C)(C)c1ccc(O)c(C)c1` [Compound 18, N-[N-[3-(3-methyl-4-hydroxyphenyl)-3-methylbutyl)-L-α-aspartyl]-L-phenylalanine 1-methyl ester], in assay [1], the “Sweetness (sweetening potency)” value is reported as “approximately 70000 times the sweetness of sugar” and the sweetness potency stood at 70000. For the same molecule, the “Sweetness (sweetening potency)” value in assay [1] (listed as Example 11) is 70000 times the sweetness of sugar.

As to `COC(=O)[C@H](Cc1ccccc1)NC(=O)[C@H](CC(=O)O)NCCC(C)(C)c1ccc(C)c(O)c1` [Compound 19, N-[N-[3-(3-hydroxy-4-methylphenyl)-3-methylbutyl]-L-α-aspartyl]-L-phenylalanine 1-methyl ester], the “Sweetness (sweetening potency)” value was “approximately 60000 times the sweetness of sugar” in assay [1] and 60000 times the sweetness of sugar in assay [1] (listed as Example 22). Moreover, the sweetness potency in assay [1] was 60000.

With `COC(=O)[C@H](Cc1ccccc1)NC(=O)[C@H](CC(=O)O)NCCC1(c2ccc(O)c(OC)c2)CCCC1` [Compound 20, N-[N-[2-[1-(3-methoxy-4-hydroxyphenyl)cyclopentyl]ethyl]-L-α-aspartyl]-L-phenylalanine 1-methyl ester], in assay [1], the “Sweetness (sweetening potency)” value was 30000 times the sweetness of sugar and the sweetness potency was found to be 30000.

Consider `CCOC(=O)[C@H](Cc1ccccc1)NC(=O)[C@H](CC(=O)O)NCCC(C)(C)c1ccc(OC)c(O)c1` [Compound 21, N-[N-[3-(3-hydroxy-4-methoxyphenyl)-3-methylbutyl]-L-α-aspartyl]-L-phenylalanine 1-ethyl ester], for which, in assay [1], the “Sweetness (sweetening potency)” value is 15000 times the sweetness of sugar and the sweetness potency is on record as 15000.

As to `COC(=O)[C@](C)(Cc1ccccc1)NC(=O)[C@H](CC(=O)O)NCCC(C)(C)c1ccc(OC)c(O)c1` [Compound 22], in assay [1], the “Sweetness (sweetening potency)” value was 40000 times the sweetness of sugar and the sweetness potency is 40000.

`COC(=O)[C@H](Cc1ccccc1)NC(=O)[C@H](CC(=O)O)NCCC(C)(C)c1ccc(O)c(O)c1` [Compound 23, N-[N-[3-(3,4-dihydroxyphenyl)-3-mehylbutyl]-L-α-aspartyl]-L-phenylalanine 1-methyl ester]: in assay [1], the “Sweetness (sweetening potency)” value is 50000 times the sweetness of sugar and the sweetness potency was determined as 50000.

Take `COC(=O)[C@H](Cc1ccccc1)NC(=O)[C@H](CC(=O)O)NCCC(C)(C)C` [N-[N-(3,3-dimethylbutyl)-L-α-aspartyl]-L-phenylalanine 1-methyl ester, reference compound]: the sweetening potency is 10,000 times that of sucrose in assay [2] and 10000 times that of sucrose in assay [2] (listed as N-[N-(3,3-dimethylbutyl)-L-α-aspartyl]-L-phenylalanine 1-methylester).

For the molecule `COC(=O)[C@H](Cc1ccc(O)cc1)NC(=O)[C@H](CC(=O)O)NCCC(C)(C)C` [N-[N-(3,3-dimethylbutyl)-L-α-aspartyl]-L-tyrosine 1-methyl ester], the sweetening potency in assay [2] was 4,000 times that of sucrose; in assay [2] (listed as N-[N-(3,3-dimethylbutyl)-L-α-aspartyl]-L-tyrosine 1-methylester) it was 4000 times that of sucrose.
